Experimental data: patent publication US6710083B2, “Method of treating palmar and plantar fibromatosis” (priority 2002, dated 2004)

Experiments:
[1] = test system: palmar fibromatosis (Dupuytren's contracture); experiment: Clinical treatment of patients with palmar fibromatosis (Dupuytren's contracture) with oral Accutane: initial dosage then maintenance dosage; type: in vivo, human
Method: (§1) Example 1 to 3 illustrate clinical effectiveness of the above described treatment method. An initial treatment and a maintenance treatment as described above were prescribed to the patients. It is noted that the patients described in the Examples were in the average weight range, therefore, an average dosage of 40 mg was used.
(§2) The patient was treated with orally administering Accutane® (Hoffmann-La Roche Inc., Nutley, New Jersey) about 40 mg daily for 14 days. Then the dosage was decreased to a maintenance dosage of 40 mg about twice a week for twelve months.
(§3) The patient was treated with orally administering Accutane® about 40 mg daily for 14 days. Then the dosage was decreased to 40 mg about twice a week for eight months.
(§4) The patient was placed on Accutane® 40 mg daily for two weeks.

[2] = Side effects, tolerability and laboratory values during the clinical treatment of palmar fibromatosis patients; type: in vivo, human
Method: as §1, §2, §3, §4

[3] = Example 2 patient, eight months of therapy

CC1=C(/C=C/C(C)=C/C=C/C(C)=C\C(=O)O)C(C)(C)CCC1 [Accutane, 13-cis retinoic acid]
dimple overhead of the third methocarpal bone ([1]; Example 1 patient, both hands, after twelve months of therapy): disappeared
fibrotic band, right hand ([1]; Example 1 patient, middle finger, 4 mm before treatment, 40 mg daily 14 days, then 40 mg about twice a week, after twelve months): 2 mm
fibrotic band, left hand ([1]; Example 1 patient, middle finger, oral 40 mg daily for 14 days, then 40 mg about twice a week, after twelve months): completely disappeared
pain and tenderness in the flexor tendon area of the hands ([1]; Example 1 patient, patient-described, after twelve months of therapy): completely abated
range of fixed flexion of the left middle finger ([1]; Example 1 patient, 7 degree before treatment as printed, after twelve months of therapy): none
fixed flexion of the right middle finger ([1]; Example 1 patient, fixed 15 degree before treatment as printed, after twelve months of therapy): 3 degree
fibrotic ridge of the left hand ([1]; Example 2 patient, advanced disease, 40 mg daily 14 days, then 40 mg about twice a week for eight months): reduced in scope and size
ring finger's disposition from the flexed position ([1]; Example 2 patient, left hand, about 90 degree before treatment, eight months of therapy): about 70 degree
tenderness of the left hand caused by the contracture ([1]; Example 2 patient, patient-reported, eight months of therapy): less tender
tenderness in the flexor tendon area ([1]; Example 3 patient, patient-described, nine months of treatment): less tenderness
thickness of the fibrotic band ([1]; Example 3 patient, right hand, 40 mg daily two weeks, then 40 mg about twice a week for nine months): reduced
restriction of extension of the ring finger ([1]; Example 3 patient, right hand, nine months of treatment): lessened
deflection of the right hand ring finger ([1]; Example 3 patient, 30 degree before treatment, nine months of treatment): 20 degree
further progression of the contracture ([1]; patients with either early stage disease or advanced conditions (general statement)): inhibits further progression of the contracture
adverse side effects ([2]; Example 1 patient, 40 mg daily 14 days, then 40 mg about twice a week for twelve months): No adverse side effects were noted other than drying of lips
blood chemistries ([2]; Example 1 patient, low maintenance dosage): remained normal
laboratory abnormality [2, 3]: No laboratory abnormality was observed
musculoskeletal pain [2, 3]: some musculoskelatal pain, which diminished after the third month of the treatment
tolerability ([2]; Example 2 patient, lower maintenance dosage): well tolerated
serious adverse side effects ([2]; patients diagnosed with Dupytren's contracture, described treatment (general statement)): no serious adverse side effects were observed
